Assay results from patent US8299056B2 (Signal Pharmaceuticals, LLC, priority 2008, dated 2012).
Like-named read-outs stand apart in the source and are kept apart here.

Biological target: T1, Syk (Homo sapiens, UniProt P43405)
T1 construct: purchased Carna Biosciences
Experiment: Syk HTRF assay
Format: biochemical
Method in brief: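 HTRF kinase assay in HEPES pH 7.6 buffer with MgCl2, DTT and Triton X100; start mix of 87.5 μM ATP and 80 nM biotinylated peptide, 1 h at room temperature. EDTA stop, then Eu-anti-phosphotyrosine/streptavidin-DyLight 647 detection, read as 665/615 nm emission ratio.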

[1] = activity levels A-D, read-out: Activity Level (IC50 in the Syk HTRF assay)
[2] = read-out: Activity Level (Syk HTRF assay IC50)
[3] = IC50 activity level, read-out: Activity Level

Row | Compound | IC50 [1] | IC50 [3] | further results
1 | Cc1n[nH]c2cc(Nc3nc4cccc(CC5CCOCC5)n4n3)ccc12 [Example 199, N-(3-methyl-1H-indazol-6-yl)-5-((tetrahydro-2H-pyran-4-yl)methyl)-[1,2,4]triazolo[1,5-a]pyridin-2-amine] | 0.005 to 250 nM | – | –
2 | N#Cc1ccc(-c2cccc3nc(Nc4ccccc4)nn23)cc1 [compound 76, 4-(2-(phenylamino)-[1,2,4]triazolo[1,5-a]pyridin-5-yl)benzonitrile] | – | – | IC50 [2]: 1000 to 10000 nM
3 | NCc1ccc(Nc2nc3cccc(-c4cccc(O)c4)n3n2)cc1 [compound 24, 3-(2-(4-(aminomethyl)phenylamino)-[1,2,4]triazolo[1,5-a]pyridin-5-yl)phenol] | – | – | IC50 [2]: 250 to 500 nM
4 | Cc1n[nH]c2cc(Nc3nc4cccc(CN5CCNC(=O)C5)n4n3)ccc12 [Example 235, 4-((2-(3-methyl-1H-indazol-6-ylamino)-[1,2,4]triazolo[1,5-a]pyridin-5-yl)methyl)piperazin-2-one] | 0.005 to 250 nM | – | –
5 | O[C@H]1CC[C@@H](Nc2cccc3nc(Nc4ccc(C(F)(F)F)cc4)nn23)C1 (stereo in doubt) [Example 418, (1S,3R)-3-(2-(4-(trifluoromethyl)phenylamino)-[1,2,4]triazolo[1,5-a]pyridin-5-ylamino)cyclopentanol] | – | 0.005 to 250 nM | –
6 | NC(=O)[C@H]1CC[C@H](Oc2cccc3nc(Nc4ccc(C(F)(F)F)cc4)nn23)CC1 (stereo in doubt) [Example 405, trans-4-(2-(4-(trifluoromethyl)phenylamino)-[1,2,4]triazolo[1,5-a]pyridin-5-yloxy)cyclohexanecarboxamide] | – | 1000 to 10000 nM | –
7 | CNC(=O)c1ccc(Nc2nc3cccc(-c4ccccc4F)n3n2)cc1 [compound 21, 4-(5-(2-fluorophenyl)-[1,2,4]triazolo[1,5-a]pyridin-2-ylamino)-N-methylbenzamide] | – | – | IC50 [2]: 500 to 1000 nM
8 | COc1cccc(Nc2nc3cccc(N[C@H]4CC[C@@H](O)CC4)n3n2)n1 [Example 342, cis-4-(2-(6-methoxypyridin-2-ylamino)-[1,2,4]triazolo[1,5-a]pyridin-5-ylamino)cyclohexanol] | 1000 to 10000 nM | – | –
9 | Cc1cc(Nc2nc3cccc(N[C@H]4CC[C@@H](O)CC4)n3n2)c2c(c1)N(C)C(=O)C2 [Example 554, cis-4-(5-(4-hydroxycyclohexylamino)-[1,2,4]triazolo[1,5-a]pyridin-2-ylamino)-1,6-dimethylindolin-2-one] | – | 500 to 1000 nM | –
10 | Oc1cccc(Nc2nc3cccc(N[C@H]4CC[C@@H](O)CC4)n3n2)n1 [Example 305, cis-6-(5-(4-hydroxycyclohexylamino)-[1,2,4]triazolo[1,5-a]pyridin-2-ylamino)pyridin-2-ol] | 1000 to 10000 nM | – | –
11 | Fc1ccccc1-c1cccc2nc(Nc3ccccc3)nn12 [compound 80, 5-(2-fluorophenyl)-N-phenyl-[1,2,4]triazolo[1,5-a]pyridin-2-amine] | – | – | IC50 [2]: 1000 to 10000 nM
12 | N#Cc1cc(Nc2nc3cccc(N[C@H]4CC[C@@H](O)CC4)n3n2)ccn1 [Example 256, cis-4-(5-(4-hydroxycyclohexylamino)-[1,2,4]triazolo[1,5-a]pyridin-2-ylamino)picolinonitrile] | 500 to 1000 nM | – | –
13 | CC1(C)C(=O)Nc2cc(Nc3nc4cccc(OC5CCOCC5)n4n3)ccc21 [Example 168, 3,3-dimethyl-6-(5-(tetrahydro-2H-pyran-4-yloxy)-[1,2,4]triazolo[1,5-a]pyridin-2-ylamino)indolin-2-one] | – | – | IC50 [2]: 0.005 to 250 nM
14 | CCN1CCC(Cc2cccc3nc(Nc4ccc(C(F)(F)F)cc4)nn23)CC1 [Example 407, 5-((1-ethylpiperidin-4-yl)methyl)-N-(4-(trifluoromethyl)phenyl)-[1,2,4]triazolo[1,5-a]pyridin-2-amine] | – | 500 to 1000 nM | –
15 | CN1Cc2cc(Nc3nc4cccc(NC5CCOCC5)n4n3)ccc2C1=O [Example 144, 2-methyl-5-(5-(tetrahydro-2H-pyran-4-ylamino)-[1,2,4]triazolo[1,5-a]pyridin-2-ylamino)isoinoldin-1-one] | – | – | IC50 [2]: 1000 to 10000 nM
16 | c1ccc(Nc2nc3cccc(-c4ccccc4)n3n2)cc1 [Example 98] | – | – | IC50 [2]: 500 to 1000 nM
17 | FC(F)(F)c1ccc(Nc2nc3cccc(CN4CCOCC4)n3n2)cc1 [Example 308, 5-(morpholinomethyl)-N-(4-(trifluoromethyl)phenyl)-[1,2,4]triazolo[1,5-a]pyridin-2-amine] | 1000 to 10000 nM | – | –
18 | Cc1cc(Nc2nc3cccc(CC4CCOCC4)n3n2)cc2[nH]nc(C)c12 [Example 548, N-(3,4-dimethyl-1H-indazol-6-yl)-5-((tetrahydro-2H-pyran-4-yl)methyl)-[1,2,4]triazolo[1,5-a]pyridin-2-amine] | – | 0.005 to 250 nM | –
19 | NC(=O)c1cncc(Nc2nc3cccc(N[C@H]4CC[C@@H](O)CC4)n3n2)c1 [Example 369, cis-5-(5-(4-hydroxycyclohexylamino)-[1,2,4]triazolo[1,5-a]pyridin-2-ylamino)nicotinamide] | 1000 to 10000 nM | – | –
20 | Cn1ncc2ccc(Nc3nc4cccc(N[C@H]5CCCNC5)n4n3)cc21 [Example 466, (S)-N^2-(1-methyl-1H-indazol-6-yl)-N^5-(piperidin-3-yl)-[1,2,4]triazolo[1,5-a]pyridine-2,5-diamine] | – | 0.005 to 250 nM | –
21 | FC(F)(F)c1ccc(Nc2nc3cccc(OC[C@H]4CCCN4)n3n2)cc1 [Example 302, (R)-5-(pyrrolidin-2-ylmethoxy)-N-(4-(trifluoromethyl)phenyl)-[1,2,4]triazolo[1,5-a]pyridin-2-amine] | 1000 to 10000 nM | – | –
22 | Cc1nn(C)c2cc(Nc3nc4cccc(N[C@H]5CC[C@@H](O)CC5)n4n3)cc(F)c12 [Example 149, cis-4-(2-(4-fluoro-1,3-dimethyl-1H-indazol-6-ylamino)-[1,2,4]triazolo[1,5-a]pyridin-5-ylamino)cyclohexanol] | – | – | IC50 [2]: 0.005 to 250 nM
23 | Cc1n[nH]c2cc(Nc3nc4cccc(N[C@H]5CC[C@@H](O)CC5)n4n3)cc(F)c12 [Example 164, cis-4-(2-(4-fluoro-3-methyl-1H-indazol-6-ylamino)-[1,2,4]triazolo[1,5-a]pyridin-5-ylamino)cyclohexanol] | – | – | IC50 [2]: 0.005 to 250 nM
24 | N#Cc1cccc(Nc2nc3cccc(N[C@H]4CC[C@@H](O)CC4)n3n2)c1 [Example 348, cis-3-(5-(4-hydroxycyclohexylamino)-[1,2,4]triazolo[1,5-a]pyridin-2-ylamino)benzonitrile] | 250 to 500 nM | – | –
25 | c1ccc(-c2cccc3nc(Nc4ccncc4)nn23)cc1 [compound 58, 5-phenyl-N-(pyridin-4-yl)-[1,2,4]triazolo[1,5-a]pyridin-2-amine] | – | – | IC50 [2]: 500 to 1000 nM
26 | Cc1nn(C)c2cc(Nc3nc4cccc(N[C@H]5CC[C@@H](O)CC5)n4n3)ccc12 [Example 218, cis-4-(2-(1,3-dimethyl-1H-indazol-6-ylamino)-[1,2,4]triazolo[1,5-a]pyridin-5-ylamino)cyclohexanol] | 0.005 to 250 nM | – | –
27 | COc1cccc(Nc2nc3cccc(N[C@H]4CC[C@@H](O)CC4)n3n2)c1 [Example 338, cis-4-(2-(3-methoxyphenylamino)-[1,2,4]triazolo[1,5-a]pyridin-5-ylamino)cyclohexanol] | 0.005 to 250 nM | – | –
28 | CNC(=O)c1ccc(Nc2nc3cccc(-c4cccc(C(=O)O)c4)n3n2)cc1 [compound 30, 3-(2-(4-(methylcarbamoyl)phenylamino)-[1,2,4]triazolo[1,5-a]pyridin-5-yl)benzoic acid] | – | – | IC50 [2]: 1000 to 10000 nM
29 | c1ccc(Nc2nc3cccc(NC4CCNCC4)n3n2)cc1 [Example 523, N^2-phenyl-N^5-(piperidin-4-yl)-[1,2,4]triazolo[1,5-a]pyridine-2,5-diamine] | – | 500 to 1000 nM | –

Continued, in another order:

Row | IC50 [1] | IC50 [3] | Compound | further results
30 | – | 0.005 to 250 nM | c1ccc(Nc2nc3cccc(-c4ccc5nc(CN6CCCC6)[nH]c5c4)n3n2)cc1 [Example 428, N-phenyl-5-(2-(pyrrolidin-1-ylmethyl)-1H-benzo[d]imidazol-6-yl)-[1,2,4]triazolo[1,5-a]pyridin-2-amine] | –
31 | – | 500 to 1000 nM | NC(=O)c1ccc(Nc2nc3cccc(NC4CCCCC4)n3n2)cc1 [Example 560, 4-(5-(cyclohexylamino)-[1,2,4]triazolo[1,5-a]pyridin-2-ylamino)benzamide] | –
32 | 1000 to 10000 nM | – | O[C@H]1CCC[C@H]1Nc1cccc2nc(Nc3ccc(C(F)(F)F)cc3)nn12 (stereo in doubt) [Example 376, (1S,2R)-2-(2-(4-(trifluoromethyl)phenylamino)-[1,2,4]triazolo[1,5-a]pyridin-5-ylamino)cyclopentanol] | –
33 | – | 1000 to 10000 nM | CN(c1ccccc1)c1cccc2nc(Nc3ccccc3)nn12 [Example 472, N^5-methyl-N^2,N^5-diphenyl-[1,2,4]triazolo[1,5-a]pyridin-2,5-diamine] | –
34 | – | 0.005 to 250 nM | CNC(=O)c1ccc(Nc2nc3cccc(-c4ccc5nn[nH]c5c4)n3n2)cc1 [Example 432, 4-(5-(1H-benzo[d][1,2,3]triazol-6-yl)-[1,2,4]triazolo[1,5-a]pyridin-2-ylamino)-N-methylbenzamide] | –
35 | 1000 to 10000 nM | – | O[C@H]1CCCC[C@@H]1Nc1cccc2nc(Nc3ccc(C(F)(F)F)cc3)nn12 [Example 334, (1S,2S)-2-(2-(4-(trifluoromethyl)phenylamino)-[1,2,4]triazolo[1,5-a]pyridin-5-ylamino)cyclohexanol] | –
36 | – | 1000 to 10000 nM | NC(=O)c1ccc(Cc2cccc3nc(Nc4ccccc4)nn23)cc1 [Example 452, 4-((2-(phenylamino)-[1,2,4]triazolo[1,5-a]pyridin-5-yl)methyl)benzamide] | –
37 | 0.005 to 250 nM | – | N#Cc1ccc(Nc2nc3cccc(N[C@H]4CC[C@@H](O)CC4)n3n2)cc1 [Example 363, 4-(5-(cis-4-hydroxycyclohexylamino)-[1,2,4]triazolo[1,5-a]pyridin-2-ylamino)benzonitrile] | –
38 | – | 250 to 500 nM | CC(CO)Cc1cccc2nc(Nc3ccccc3)nn12 (stereo in doubt) [Example 480, (S)-2-methyl-3-(2-(phenylamino)-[1,2,4]triazolo[1,5-a]pyridin-5-yl)propan-1-ol] | –
39 | – | 0.005 to 250 nM | NC(=O)c1ccc(Nc2nc3cccc(NC4CCC(N)CC4)n3n2)cc1 (stereo in doubt) [Example 492, trans-4-(5-(4-aminocyclohexylamino)-[1,2,4]triazolo[1,5-a]pyridin-2-ylamino)benzamide] | –
